Laboratory results: patent US20090305890A1, “METHOD OF CONTROLLING PLANTS” (SYNGENTA LIMITED, priority 2005, published 2009)

Key:
Assay type in all cases: in vivo
[1] = test system: paraquat resistant Lolium biotype RL 1; assay: Greenhouse visual assessment of percentage control, Example 1; conditions: 14 days after applying
Experimental: (§1) Aqueous herbicidal compositions comprising water and paraquat alone at various application rates, glufosinate ammonium alone at various application rates and compositions containing water and combinations of these two herbicides were applied over certain paraquat resistant plants. Ammonium sulphate was included in all of the compositions at a concentration of 1% w/v. The effectiveness of the composition in controlling the plants was assessed visually 14 days after applying the herbicide. The assessment was made as a percentage control −0% representing no damage and 100% representing death of all the plants. The plants used were two paraquat resistant Lolium biotypes (referred to as RL 1 and RL 2, collected in South Africa). The plants were grown in a greenhouse to the two-three true leaves stage before the herbicide was applied. Three replicates of each treatment were carried out.
(§2) The results were analysed using the Colby formula which generates an expected level of control from the results obtained by using the individual components alone. This was compared with the actual level of control. The Colby formula predicts that the expected percentage level of control E for a particular combination of components is obtained as follows, in which P1 and P2 are the levels of control obtained by using the components alone
(§3) The figures given in the Synergy column in the table below are the difference between the predicted level of control and the actual level of control. A figure of zero means that the actual result is as predicted by the Colby equation. Any number above zero represents evidence of synergy. Numbers below zero may represent antagonism.

[2] = test system: paraquat resistant Lolium biotype RL 2; assay: as above; conditions: 14 days after applying
Experimental: as §1, §2, §3

[3] = test system: paraquat resistant ryegrass (Lolium rigidum); assay: Glasshouse study, visual percentage control, Example 2; conditions: Paraquat Resistant Population, 28 days after applying
Experimental: (§4) A glasshouse study was conducted with two biotypes of ryegrass (Lolium rigidum), one paraquat resistant and the other paraquat susceptible. The plants (3 leaf stage) were planted in pots at a density of approximately 14,000 plants/m^2 to simulate field infestation levels. The treatments were based on commercial formulations of paraquat and glufosinate were diluted in water including the adjuvants AMS (5%) and Agral 90 (0.25%). The treatments were applied to the plants in a spray volume equivalent to 400 lts/ha. Each treatment was replicated three times. The effectiveness of the treatments in controlling the plants was assessed visually 28 days after applying the herbicide. The assessment was made as a percentage control −0% representing no damage and 100% representing death of all the plants.

[4] = test system: paraquat susceptible ryegrass (Lolium rigidum); assay: as above; conditions: Paraquat Susceptible Population, 28 days after applying
Experimental: as §4

[5] = test system: paraquat resistant ryegrass (Lolium rigidum); assay: Glasshouse test of sequential (split) application, visual percentage control, Example 3; conditions: 28 days after the initial application
Experimental: A glasshouse test was conducted to examine the effect of applying the products sequentially (ie. in a split application), using paraquat resistant ryegrass (Lolium rigidum) plants. The plants were planted in pots and at the time of the initial application they were at the 4½ leaf stage. The treatments were based on commercial formulations of paraquat and glufosinate were diluted in water including the adjuvants AMS (5%) and Agral 90 (0.25%). The treatments' were applied to the plants in a spray volume equivalent to 400 lts/ha. Each treatment was replicated 3 times. The effectiveness of the treatments in controlling the plants was assessed visually 28 days after the initial application date. The assessment was made as a percentage control −0% representing no damage and 100% representing death of all the plants.

[6] = glufosinate ammonium 50 g/ha alone
[7] = glufosinate ammonium 100 g/ha alone
[8] = glufosinate ammonium 200 g/ha alone
[9] = glufosinate ammonium 400 g/ha alone
[10] = glufosinate ammonium 600 g/ha alone

With CP(=O)(O)CCC(N)C(=O)O (racemic) [glufosinate ammonium, ammonium 4-[hydrox(methyl)phosphinoyl]-DL-homoalaninate] the “Average % control of RL 1” value [1, 6] was 0%, the “Average % control of RL 1” value [1, 7] was 0% and the “Average % control of RL 1” value [1, 8] was 3%. The “Average % control of RL 1” value [1, 9] was 2%, the “Average % control of RL 1” value [1, 10] was 78% and the “Average % control of RL 2” value [2, 6] was 0%. For the same compound, the “Average % control of RL 2” value [2, 7] was 0%, the “Average % control of RL 2” value [2, 8] was 2% and the “Average % control of RL 2” value [2, 9] was 33%. The “Average % control of RL 2” value [2, 10] was 89%, the “Percentage Control” value ([3]; Glufosinate 300 g ai/ha) was 44% and the “Percentage Control” value ([4]; Glufosinate 300 g ai/ha) was 85%. The “% Control” value ([5]; 150 g ai/ha) was 0%, the “% Control” value ([5]; 200 g a/ha) was 33% and the “% Control” value ([5]; 300 g ai/ha) was 83%.

C[n+]1ccc(-c2cc[n+](C)cc2)cc1 [Paraquat, 1,1′-dimethyl-4,4′-bipyridylium cation] was tested, and the “Average % control of RL 1” value ([1]; paraquat 10 g/ha alone) was 0%, the “Average % control of RL 1” value ([1]; paraquat 20 g/ha alone) was 0% and the “Average % control of RL 1” value ([1]; paraquat 60 g/ha alone) was 0%. For the same compound, the “Average % control of RL 1” value ([1]; paraquat 80 g/ha alone) was 17%, the “Average % control of RL 1” value ([1]; paraquat 400 g/ha alone) was 33% and the “Average % control of RL 1” value ([1]; paraquat 1200 g/ha alone) was 33%. For the same compound, the “Average % control of RL 1” value ([1]; paraquat 2000 g/ha alone) was 98%, the “Average % control of RL 1” value ([1]; paraquat 4000 g/ha alone) was 100% and the “Average % control of RL 2” value ([2]; paraquat 10 g/ha alone) was 0%. The “Average % control of RL 2” value ([2]; paraquat 20 g/ha alone) was 0%, the “Average % control of RL 2” value ([2]; paraquat 60 g/ha alone) was 0% and the “Average % control of RL 2” value ([2]; paraquat 80 g/ha alone) was 0%. For the same compound, the “Average % control of RL 2” value ([2]; paraquat 400 g/ha alone) was 0%, the “Average % control of RL 2” value ([2]; paraquat 1200 g/ha alone) was 7% and the “Average % control of RL 2” value ([2]; paraquat 2000 g/ha alone) was 3%. For the same compound, the “Average % control of RL 2” value ([2]; paraquat 4000 g/ha alone) was 42%, the “Percentage Control” value ([3]; Paraquat 600 g ai/ha) was 29% and the “Percentage Control” value ([4]; Paraquat 600 g ai/ha) was 100%. For the same compound, the “% Control” value ([5]; 600 g ai/ha) was 58%.
